Results: US20100190856A1, “Novel Polyhydroxylated Compounds as Fatty Acid Synthase (FASN) Inhibitors” (UNIVERSIDAD COMPLUTENSE DE MADRID, priority 2007, published 2010)
Entries after “also recorded” stand apart in the source; their conditions may differ.

Assays:
[1] = system: AKT; assay: Immunoblot analysis of AKT and phospho-AKT in SK-Br3 cells; assay type: cell-based, human; details: for time after treatment at which a marked decrease of p-AKT was observed / expression levels of p-AKT proteins: SK-Br3, 30 μM; for expression levels of p-AKT proteins: 6 hours after treatment; for active form of Akt: within 2 h after treatment
Procedure: (§1) Following the treatment of SK-Br3 cells with the studied compound at the desired concentrations and time intervals, cells were harvested by treatment with trypsin-EDTA solution, washed twice with PBS and stored at −80° C. The cells were lysed in lysis buffer (1 mM EDTA, 150 mM NaCl, 100 μg/mL PMSF and 50 mM Tris-HCl, pH 7.5) and kept at 4° C. while they were routinely mixed every 2 min on the vortex during 30 min. A sample was taken for measurement of protein content by a BioRad assay (Bio-Rad Laboratories). Equal amounts of protein were heated in sodium dodecyl sulphate (SDS) sample buffer (Laemmli) for 5 min at 95° C., separated on a 3-8% SDS-polyacrylamide gel (FASN, p185^HER2/neu, phospho-p185^HER2/neu) or 4-12% SDS-polyacrylamide gel (AKT, phospho-AKT, ERK1/2, phospho-ERK1/2 and PARP) and transferred onto nitrocellulose membranes. The membranes were incubated for 1 h at room temperature in blocking buffer (2.5% powdered-skim milk in TBS-T [10 mM Tris-HCl pH 8.0, 150 mM NaCl and 0.05% Tween-20]) to prevent non-specific antibody binding. The primary antibody used was a monoclonal antibody. Antibody dilution was prepared in blocking solution and blots were incubated with monoclonal antibody overnight at 4° C. […] Blots were re-probed with an antibody for β-actin to control for protein loading and transfer.

[2] = target: T1, rat CPT-1 (Rattus norvegicus, UniProt Q63704); assay: Carnitine palmitoyltransferase 1 (CPT-1) assay, yeast mitochondria; assay type: biochemical; design: % CPT-1 activity: concentration or dose not given beside the values; details: for % CPT-1 activity: % of DMSO control, mitochondria of P. pastoris expressing rat CPT-1
T1 construct: made in house; host or cells: Pichia pastoris GS115 (isolated intact mitochondria)
T1 sequence (Q63704 1-772): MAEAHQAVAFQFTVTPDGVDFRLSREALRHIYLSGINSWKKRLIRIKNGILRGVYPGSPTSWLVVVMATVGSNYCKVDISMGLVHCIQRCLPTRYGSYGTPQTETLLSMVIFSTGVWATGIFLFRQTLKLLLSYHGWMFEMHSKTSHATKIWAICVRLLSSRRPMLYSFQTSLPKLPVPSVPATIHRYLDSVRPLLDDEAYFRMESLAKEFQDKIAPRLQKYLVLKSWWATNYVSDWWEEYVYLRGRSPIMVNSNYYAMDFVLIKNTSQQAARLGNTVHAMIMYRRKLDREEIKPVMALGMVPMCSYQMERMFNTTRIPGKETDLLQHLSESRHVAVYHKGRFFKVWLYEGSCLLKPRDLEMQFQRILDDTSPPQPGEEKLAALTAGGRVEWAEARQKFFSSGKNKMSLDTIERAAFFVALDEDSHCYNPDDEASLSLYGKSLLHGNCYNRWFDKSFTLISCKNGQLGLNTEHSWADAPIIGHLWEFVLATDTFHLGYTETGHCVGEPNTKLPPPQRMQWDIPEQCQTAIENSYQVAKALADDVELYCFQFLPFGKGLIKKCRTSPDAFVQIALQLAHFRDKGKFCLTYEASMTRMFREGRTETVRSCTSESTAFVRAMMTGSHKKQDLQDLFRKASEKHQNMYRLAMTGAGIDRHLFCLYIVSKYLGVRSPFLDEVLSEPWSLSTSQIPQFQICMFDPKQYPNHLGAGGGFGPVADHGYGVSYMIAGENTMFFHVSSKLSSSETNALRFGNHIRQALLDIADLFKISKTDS
From the text: The expression plasmid pRCPT-Iβ/pHW010 (provided by Gebre Woldegiorgis, Beaverton, Oreg. Published in Woldegiorgis G. et al. Biochem. Biophys. Res. Commun. 2004, 325, 660-4.) was linearized in the GAP gene promoter by digestion with AvrII and integrated into the GAPp locus of P. pastoris GS115 by electroporation. Histidine prototrophic transformants were selected on YND plates and grown on YND medium. Mitochondria were isolated by disrupting the yeast cells with glass beads as previously described.
CPT activity was assayed by the forward exchange method using L-[^3H] carnitine as previously described (Nicot, C. et al., Biochem. Biophys. Res. Comm. 2004, 325, 2745-7). In a total volume of 0.5 mL, the standard enzyme assay mixture contained 0.2 mM L-[^3H]carnitine (˜5000 dpm/nmol), 80 μM palmitoyl-CoA, 20 mM HEPES (pH 7.0), 1% fatty acid-free albumin, and 40-75 mM KCl, with or without malonyl-CoA as indicated. Reactions were initiated by addition of isolated intact yeast mitochondria. The reaction was linear up to 4 min, and all incubations were done at 30° C. for 3 min. Reactions were stopped by addition of 6% perchloric acid and were then centrifuged at 2000 rpm for 7 min. The resulting pellet was suspended in water, and the product [^3H]palmitoylcarnitine was extracted with butanol at low pH. After centrifugation at 2000 rpm for 2 min, an aliquot of the butanol phase was transferred to a vial for radioactive counting.

[3] = system: HER2; assay: Immunoblot analysis of p185HER2/neu and phospho-p185HER2/neu in SK-Br3 cells; assay type: cell-based, human; details: for level of total HER2 / expression levels of p-HER2 proteins / levels of p-HER2 proteins: SK-Br3, 30 μM; for level of total HER2: Western blotting or HER2-specific ELISA; for expression levels of p-HER2 proteins: within 2 h after exposure; for levels of p-HER2 proteins: within 6 h after treatment; for active form of oncoprotein HER2: within 2 h after treatment
Procedure: as §1
We have examined the time-dependent effects of compound f (30 μM) and compound i (30 μM) on HER2, AKT and ERK1/2 activation.

| Structure (SMILES) | time after treatment at which a marked decrease of p-AKT was observed [1] [h] | expression levels of p-AKT proteins [1] | active form of Akt [1] | stimulation of CPT-1 activity (in words) [2] | % CPT-1 activity [2] [%] | level of total HER2 [3] | expression levels of p-HER2 proteins [3] | levels of p-HER2 proteins [3] | active form of oncoprotein HER2 [3] |
| --- | --- | --- | --- | --- | --- | --- | --- | --- | --- |
| O=C(Oc1cc(OC(=O)c2cc(O)c(O)c(O)c2)c2ccccc2c1)c1cc(O)c(O)c(O)c1 [f, 1,3-bis[(3,4,5-trihydroxybenzoyl)oxy]naphthalene] | 24 | low decrease | marked decrease | did not stimulate CPT-1 activity; also recorded: without parallel stimulation of CPT-1 activity | 89 ± 4 | no significant change | markedly decreased | total decrease | marked decrease |
| O=C(Oc1ccc(OC(=O)c2cc(O)c(O)c(O)c2)c2ccccc12)c1cc(O)c(O)c(O)c1 [i, 1,4-bis[(3,4,5-trihydroxybenzoyl)oxy]naphthalene] | 12 | low decrease | marked decrease | did not stimulate CPT-1 activity; also recorded: without parallel stimulation of CPT-1 activity | 90 ± 5 | no significant change | markedly decreased | total decrease | marked decrease |
